Data reported in patent US8247211B2, “Glycopeptide antibiotics” (American Cyanamid Company, priority 2001, dated 2012).
Converted amounts (≈) assume the structure as drawn.

Experiments:
Assay in all cases: In vitro antibacterial evaluation: minimum inhibitory concentration (MIC), broth dilution method
Assay type in all cases: cell-based
Escherichia coli [1] = system: Escherichia coli
Escherichia coli [2] = system: Escherichia coli; remark: listed apart in the source
Procedure, shortened: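 Following NCCLS approved standard M7-A2, compounds are serially diluted from 64 to 0.06 μg/mL in Muller-Hinton II […] and inoculated at 5×10^5 CFU/mL; the MIC is the minimum concentration at which growth is inhibited.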

Staphylococcus sp. = conditions: 18 hours at 35° C.
Procedure, shortened: (§1)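 Using Muller-Hinton II […] and an inoculum of 5×10^5 CFU/mL, antibiotic dilutions from 64 down to 0.06 μg/mL were tested following NCCLS M7-A2. The MIC is the lowest concentration inhibiting growth, including in methicillin-, penicillin- or vancomycin-resistant clinical isolates.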

Enterococcus sp. = system: Enterococcus sp.
Procedure, shortened: as §1

CC(C)CCC(=O)OC1C(OC2C(CO)OC(Oc3ccc(CC4NC(=O)C(C(C)c5ccccc5)NC(=O)CNC(=O)C(CO)NC(=O)C(C(O)C5CNC(=N)N5C5OC(CO)C(O)C(O)C5O)NC(=O)C(C(O)C5CNC(=N)N5)NC4=O)cc3)C(O)C2O)OC(CO)C(O)C1O (stereo not drawn) [Example 270a, Cyclo[glycyl-β-methylphenylalanyl-O-[4-O-[2-O-(4-methylpentanoyl)hexopyranosyl]-hexopyranosyl]tyrosyl-3-(2-iminoimidazolidin-4-yl)seryl-3-(3-hexopyranosyl-2-iminoimidazolidin-4-yl)serylseryl]]
MIC Escherichia coli (ATCC 25922) (Escherichia coli [1]): >64 µg/mL
MIC Escherichia coli (GC 4559) (Escherichia coli [2]): >64 µg/mL
MIC Escherichia coli (GC 4560) (Escherichia coli [2]): 2 µg/mL (≈ 1.44 µM)
MIC Coagulase Negative Staphylococcus (GC 4547) (Staphylococcus sp.): 2 µg/mL (≈ 1.44 µM)
MIC Coagulase Negative Staphylococcus (GC 4547) (Staphylococcus sp.; broth dilution): 2 µg/mL (≈ 1.44 µM)
MIC Coagulase Negative Staphylococcus (GC 4548) (Staphylococcus sp.): 2 µg/mL (≈ 1.44 µM)
MIC Coagulase Negative Staphylococcus (GC 4548) (Staphylococcus sp.; broth dilution): 2 µg/mL (≈ 1.44 µM)
MIC Coagulase Negative Staphylococcus (GC 4549) (Staphylococcus sp.): 2 µg/mL (≈ 1.44 µM)
MIC Coagulase Negative Staphylococcus (GC 4549) (Staphylococcus sp.; broth dilution): 2 µg/mL (≈ 1.44 µM)
MIC Coagulase Negative Staphylococcus (GC 4551) (Staphylococcus sp.): 4 µg/mL (≈ 2.87 µM)
MIC Coagulase Negative Staphylococcus (GC 4551) (Staphylococcus sp.; broth dilution): 4 µg/mL (≈ 2.87 µM)
MIC Staphylococcus aureus (ATCC 29213) (Staphylococcus sp.): 4 µg/mL (≈ 2.87 µM)
MIC Staphylococcus aureus (ATCC 29213) (Staphylococcus sp.; broth dilution): 4 µg/mL (≈ 2.87 µM)
MIC Staphylococcus aureus (GC 1131) (Staphylococcus sp.): 4 µg/mL (≈ 2.87 µM)
MIC Staphylococcus aureus (GC 1131) (Staphylococcus sp.; broth dilution): 4 µg/mL (≈ 2.87 µM)
MIC Staphylococcus aureus (GC 4541) (Staphylococcus sp.): 4 µg/mL (≈ 2.87 µM)
MIC Staphylococcus aureus (GC 4541) (Staphylococcus sp.; broth dilution): 4 µg/mL (≈ 2.87 µM)
MIC Staphylococcus aureus (GC 4542) (Staphylococcus sp.): 4 µg/mL (≈ 2.87 µM)
MIC Staphylococcus aureus (GC 4542) (Staphylococcus sp.; broth dilution): 4 µg/mL (≈ 2.87 µM)
MIC Staphylococcus aureus (GC 4544) (Staphylococcus sp.): 4 µg/mL (≈ 2.87 µM)
MIC Staphylococcus aureus (GC 4544) (Staphylococcus sp.; broth dilution): 4 µg/mL (≈ 2.87 µM)
MIC Staphylococcus aureus (GC 4545) (Staphylococcus sp.): 4 µg/mL (≈ 2.87 µM)
MIC Staphylococcus aureus (GC 4545) (Staphylococcus sp.; broth dilution): 4 µg/mL (≈ 2.87 µM)
MIC Staphylococcus aureus-SMITH (GC 4543) (Staphylococcus sp.): 4 µg/mL (≈ 2.87 µM)
MIC Staphylococcus aureus-SMITH (GC 4543) (Staphylococcus sp.; broth dilution): 4 µg/mL (≈ 2.87 µM)
MIC Staphylococcus haemolyticus (GC 4546) (Staphylococcus sp.): 2 µg/mL (≈ 1.44 µM)
MIC Staphylococcus haemolyticus (GC 4546) (Staphylococcus sp.; broth dilution): 2 µg/mL (≈ 1.44 µM)
MIC Enterococcus avium (GC 4558) (Enterococcus sp.): 16 µg/mL (≈ 11.5 µM)
MIC Enterococcus faecalis (ATCC 29212) (Enterococcus sp.): 16 µg/mL (≈ 11.5 µM)
MIC Enterococcus faecalis (GC 4553) (Enterococcus sp.): 16 µg/mL (≈ 11.5 µM)
MIC Enterococcus faecalis (GC 4554) (Enterococcus sp.): 32 µg/mL (≈ 23 µM)
MIC Enterococcus faecium (GC 2243) (Enterococcus sp.): 16 µg/mL (≈ 11.5 µM)
MIC Enterococcus faecium (GC 4556) (Enterococcus sp.): 16 µg/mL (≈ 11.5 µM)
MIC Enterococcus faecium (GC 4557) (Enterococcus sp.): 4 µg/mL (≈ 2.87 µM)

CC(=O)OCC1OC(OC2C(CO)OC(Oc3ccc(CC4NC(=O)C(C(C)c5ccccc5)NC(=O)CNC(=O)C(CO)NC(=O)C(C(O)C5CNC(=N)N5C5OC(CO)C(O)C(O)C5O)NC(=O)C(C(O)C5CNC(=N)N5)NC4=O)cc3)C(O)C2O)C(O)C(OC(=O)CCC(C)C)C1O (stereo not drawn) [Example 270b, Cyclo[glycyl-β-methylphenylalanyl-O-[4-O-[6-O-acetyl-3-O-(4-methylpentanoyl)hexopyranosyl]hexopyranosyl]tyrosyl-3-(2-iminoimidazolidin-4-yl)seryl-3-(3-hexopyranosyl-2-iminoimidazolidin-4-yl)serylseryl]]
MIC Escherichia coli (ATCC 25922) (Escherichia coli [1]): >64 µg/mL
MIC Escherichia coli (GC 4559) (Escherichia coli [2]): >64 µg/mL
MIC Escherichia coli (GC 4560) (Escherichia coli [2]): 4 µg/mL (≈ 2.79 µM)
MIC Coagulase Negative Staphylococcus (GC 4547) (Staphylococcus sp.): 4 µg/mL (≈ 2.79 µM)
MIC Coagulase Negative Staphylococcus (GC 4547) (Staphylococcus sp.; broth dilution): 4 µg/mL (≈ 2.79 µM)
MIC Coagulase Negative Staphylococcus (GC 4548) (Staphylococcus sp.): 4 µg/mL (≈ 2.79 µM)
MIC Coagulase Negative Staphylococcus (GC 4548) (Staphylococcus sp.; broth dilution): 4 µg/mL (≈ 2.79 µM)
MIC Coagulase Negative Staphylococcus (GC 4549) (Staphylococcus sp.): 4 µg/mL (≈ 2.79 µM)
MIC Coagulase Negative Staphylococcus (GC 4549) (Staphylococcus sp.; broth dilution): 4 µg/mL (≈ 2.79 µM)
MIC Coagulase Negative Staphylococcus (GC 4551) (Staphylococcus sp.): 4 µg/mL (≈ 2.79 µM)
MIC Coagulase Negative Staphylococcus (GC 4551) (Staphylococcus sp.; broth dilution): 4 µg/mL (≈ 2.79 µM)
MIC Staphylococcus aureus (ATCC 29213) (Staphylococcus sp.): 8 µg/mL (≈ 5.57 µM)
MIC Staphylococcus aureus (ATCC 29213) (Staphylococcus sp.; broth dilution): 8 µg/mL (≈ 5.57 µM)
MIC Staphylococcus aureus (GC 1131) (Staphylococcus sp.): 8 µg/mL (≈ 5.57 µM)
MIC Staphylococcus aureus (GC 1131) (Staphylococcus sp.; broth dilution): 8 µg/mL (≈ 5.57 µM)
MIC Staphylococcus aureus (GC 4541) (Staphylococcus sp.): 8 µg/mL (≈ 5.57 µM)
MIC Staphylococcus aureus (GC 4541) (Staphylococcus sp.; broth dilution): 8 µg/mL (≈ 5.57 µM)
MIC Staphylococcus aureus (GC 4542) (Staphylococcus sp.): 8 µg/mL (≈ 5.57 µM)
MIC Staphylococcus aureus (GC 4542) (Staphylococcus sp.; broth dilution): 8 µg/mL (≈ 5.57 µM)
MIC Staphylococcus aureus (GC 4544) (Staphylococcus sp.): 8 µg/mL (≈ 5.57 µM)
MIC Staphylococcus aureus (GC 4544) (Staphylococcus sp.; broth dilution): 8 µg/mL (≈ 5.57 µM)
MIC Staphylococcus aureus (GC 4545) (Staphylococcus sp.): 4 µg/mL (≈ 2.79 µM)
MIC Staphylococcus aureus (GC 4545) (Staphylococcus sp.; broth dilution): 4 µg/mL (≈ 2.79 µM)
MIC Staphylococcus aureus-SMITH (GC 4543) (Staphylococcus sp.): 4 µg/mL (≈ 2.79 µM)
MIC Staphylococcus aureus-SMITH (GC 4543) (Staphylococcus sp.; broth dilution): 4 µg/mL (≈ 2.79 µM)
MIC Staphylococcus haemolyticus (GC 4546) (Staphylococcus sp.): 4 µg/mL (≈ 2.79 µM)
MIC Staphylococcus haemolyticus (GC 4546) (Staphylococcus sp.; broth dilution): 4 µg/mL (≈ 2.79 µM)
MIC Enterococcus avium (GC 4558) (Enterococcus sp.): 32 µg/mL (≈ 22.3 µM)
MIC Enterococcus faecalis (ATCC 29212) (Enterococcus sp.): 32 µg/mL (≈ 22.3 µM)
MIC Enterococcus faecalis (GC 4553) (Enterococcus sp.): 32 µg/mL (≈ 22.3 µM)
MIC Enterococcus faecalis (GC 4554) (Enterococcus sp.): 32 µg/mL (≈ 22.3 µM)
MIC Enterococcus faecium (GC 2243) (Enterococcus sp.): 32 µg/mL (≈ 22.3 µM)
MIC Enterococcus faecium (GC 4556) (Enterococcus sp.): 32 µg/mL (≈ 22.3 µM)
MIC Enterococcus faecium (GC 4557) (Enterococcus sp.): 8 µg/mL (≈ 5.57 µM)

CC=C(C)C(=O)OC1C(CO)OC(OC2C(CO)OC(Oc3ccc(CC4NC(=O)C(C(C)c5ccccc5)NC(=O)CNC(=O)C(CO)NC(=O)C(C(O)C5CNC(=N)N5C5OC(CO)C(O)C(O)C5O)NC(=O)C(C(O)C5CNC(=N)N5)NC4=O)cc3)C(O)C2O)C(O)C1O (stereo not drawn) [Example 278b, Cyclo[glycyl-β-methylphenylalanyl-O-[4-O-[4-O-(2-methylbut-2-enoyl)hexopyranosyl]-hexopyranosyl]tyrosyl-3-(2-iminoimidazolidin-4-yl)seryl-3-(3-hexopyranosyl-2-imino-imidazolidin-4-yl)serylseryl]]
MIC Escherichia coli (ATCC 25922) (Escherichia coli [1]): >64 µg/mL
MIC Escherichia coli (GC 4559) (Escherichia coli [2]): >64 µg/mL
MIC Escherichia coli (GC 4560) (Escherichia coli [2]): 4 µg/mL (≈ 2.9 µM)
MIC Coagulase Negative Staphylococcus (GC 4547) (Staphylococcus sp.): 4 µg/mL (≈ 2.9 µM)
MIC Coagulase Negative Staphylococcus (GC 4547) (Staphylococcus sp.; broth dilution): 4 µg/mL (≈ 2.9 µM)
MIC Coagulase Negative Staphylococcus (GC 4548) (Staphylococcus sp.): 4 µg/mL (≈ 2.9 µM)
MIC Coagulase Negative Staphylococcus (GC 4548) (Staphylococcus sp.; broth dilution): 4 µg/mL (≈ 2.9 µM)
MIC Coagulase Negative Staphylococcus (GC 4549) (Staphylococcus sp.): 2 µg/mL (≈ 1.45 µM)
MIC Coagulase Negative Staphylococcus (GC 4549) (Staphylococcus sp.; broth dilution): 2 µg/mL (≈ 1.45 µM)
MIC Coagulase Negative Staphylococcus (GC 4551) (Staphylococcus sp.): 8 µg/mL (≈ 5.81 µM)
MIC Coagulase Negative Staphylococcus (GC 4551) (Staphylococcus sp.; broth dilution): 8 µg/mL (≈ 5.81 µM)
MIC Coagulase Negative Staphylococcus (GC 6257) (Staphylococcus sp.): 2 µg/mL (≈ 1.45 µM)
MIC Coagulase Negative Staphylococcus (GC 6257) (Staphylococcus sp.; broth dilution): 2 µg/mL (≈ 1.45 µM)
MIC Staphylococcus aureus (ATCC 29213) (Staphylococcus sp.): 8 µg/mL (≈ 5.81 µM)
MIC Staphylococcus aureus (ATCC 29213) (Staphylococcus sp.; broth dilution): 8 µg/mL (≈ 5.81 µM)
MIC Staphylococcus aureus (GC 1131) (Staphylococcus sp.): 8 µg/mL (≈ 5.81 µM)
MIC Staphylococcus aureus (GC 1131) (Staphylococcus sp.; broth dilution): 8 µg/mL (≈ 5.81 µM)
MIC Staphylococcus aureus (GC 3051) (Staphylococcus sp.): 4 µg/mL (≈ 2.9 µM)
MIC Staphylococcus aureus (GC 3051) (Staphylococcus sp.; broth dilution): 4 µg/mL (≈ 2.9 µM)
MIC Staphylococcus aureus (GC 3053) (Staphylococcus sp.): 8 µg/mL (≈ 5.81 µM)
MIC Staphylococcus aureus (GC 3053) (Staphylococcus sp.; broth dilution): 8 µg/mL (≈ 5.81 µM)
MIC Staphylococcus aureus (GC 4541) (Staphylococcus sp.): 8 µg/mL (≈ 5.81 µM)
MIC Staphylococcus aureus (GC 4541) (Staphylococcus sp.; broth dilution): 8 µg/mL (≈ 5.81 µM)
MIC Staphylococcus aureus (GC 4542) (Staphylococcus sp.): 8 µg/mL (≈ 5.81 µM)
MIC Staphylococcus aureus (GC 4542) (Staphylococcus sp.; broth dilution): 8 µg/mL (≈ 5.81 µM)
MIC Staphylococcus aureus (GC 4544) (Staphylococcus sp.): 8 µg/mL (≈ 5.81 µM)
MIC Staphylococcus aureus (GC 4544) (Staphylococcus sp.; broth dilution): 8 µg/mL (≈ 5.81 µM)
MIC Staphylococcus aureus (GC 4545) (Staphylococcus sp.): 4 µg/mL (≈ 2.9 µM)
MIC Staphylococcus aureus (GC 4545) (Staphylococcus sp.; broth dilution): 4 µg/mL (≈ 2.9 µM)
MIC Staphylococcus aureus-SMITH (GC 4543) (Staphylococcus sp.): 8 µg/mL (≈ 5.81 µM)
MIC Staphylococcus aureus-SMITH (GC 4543) (Staphylococcus sp.; broth dilution): 8 µg/mL (≈ 5.81 µM)
MIC Staphylococcus haemolyticus (GC 4546) (Staphylococcus sp.): 4 µg/mL (≈ 2.9 µM)
MIC Staphylococcus haemolyticus (GC 4546) (Staphylococcus sp.; broth dilution): 4 µg/mL (≈ 2.9 µM)
MIC Enterococcus avium (GC 4558) (Enterococcus sp.): 32 µg/mL (≈ 23.2 µM)
MIC Enterococcus faecalis (ATCC 29212) (Enterococcus sp.): 32 µg/mL (≈ 23.2 µM)
MIC Enterococcus faecalis (GC 4553) (Enterococcus sp.): 32 µg/mL (≈ 23.2 µM)
MIC Enterococcus faecalis (GC 4554) (Enterococcus sp.): 32 µg/mL (≈ 23.2 µM)
MIC Enterococcus faecalis (GC 6189) (Enterococcus sp.; Enterococcus faecalis (GC 6189)): 32 µg/mL (≈ 23.2 µM)
MIC Enterococcus faecium (GC 2243) (Enterococcus sp.): 32 µg/mL (≈ 23.2 µM)
MIC Enterococcus faecium (GC 4556) (Enterococcus sp.): 32 µg/mL (≈ 23.2 µM)
MIC Enterococcus faecium (GC 4557) (Enterococcus sp.): 8 µg/mL (≈ 5.81 µM)
